pIC50: −log10 of the molar value.
Target: T1, catalytic domain of human Bub1 (amino acids 704-1085) (Homo sapiens, UniProt O43683)
T1 construct: catalytic domain of human Bub1 (amino acids 704-1085); His6 (N); made in house; host or cells: Hi5 insect cells
Experiment: Bub1 kinase assay (TR-FRET)
Assay type: biochemical
Conditions: TR-FRET; ATP 10 μM, peptide substrate 1 μM; 60 min at 22° C.; average or median if tested more than once; read-out: Inhibition of Bub1 kinase IC50
In short: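 Eleven concentrations (0.1 nM–20 μM, duplicate) fitted by 4-parameter logistic for IC50. Read-out: EDTA-stopped TR-FRET (665/620 nm) detecting anti-phosphoserine binding to biotin-peptide (1 μM). Reaction used 10 μM ATP, 60 min at 22 °C, after 15 min compound preincubation with His-tagged human Bub1 704-1085.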

T1 sequence (O43683 704-1085): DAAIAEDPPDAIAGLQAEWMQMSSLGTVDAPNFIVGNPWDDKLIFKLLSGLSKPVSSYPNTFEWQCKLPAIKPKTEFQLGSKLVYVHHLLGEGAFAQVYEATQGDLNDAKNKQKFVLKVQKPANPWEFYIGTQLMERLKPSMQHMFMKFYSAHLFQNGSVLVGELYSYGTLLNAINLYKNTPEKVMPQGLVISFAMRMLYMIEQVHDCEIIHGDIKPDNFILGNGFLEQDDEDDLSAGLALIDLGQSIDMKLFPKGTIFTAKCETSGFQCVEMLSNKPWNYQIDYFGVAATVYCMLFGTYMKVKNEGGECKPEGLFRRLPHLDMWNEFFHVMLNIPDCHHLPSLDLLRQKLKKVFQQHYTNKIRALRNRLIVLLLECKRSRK

pIC50 | Structure (SMILES)
6.67 | COc1ccc(C(=O)Nc2cc(-c3[nH]c4c(c3Nc3ccccc3)C(=O)CN(C(=O)N3C[C@@H](C)O[C@@H](C)C3)C4)ccn2)cc1F [Example 292, N-4-[6-[(2R,6S)-2,6-Dimethylmorpholin-4-yl]carbonyl-4-oxo-3-(phenylamino)-4,5,6,7-tetrahydro-1H-pyrrolo[2,3-c]pyridin-2-yl]pyridin-2-yl-3-fluoro-4-methoxybenzamide]
8.00 | COc1ccc(C(=O)Nc2cc(-c3[nH]c4c(c3Nc3ccccc3)C(=O)CN(C(=O)N3CCCC3)C4)ccn2)cc1F [Example 293, 3-Fluoro-4-methoxy-N-4-[4-oxo-3-(phenylamino)-6-(pyrrolidin-1-ylcarbonyl)-4,5,6,7-tetrahydro-1H-pyrrolo[2,3-c]pyridin-2-yl]pyridin-2-ylbenzamide]
6.30 | Cc1ccc(Nc2c(-c3ccnc(N)c3)[nH]c3c2C(=O)CN(C(=O)OC(C)(C)C)C3)cc1 [Example 294, tert-butyl 2-(2-Aminopyridin-4-yl)-3-[(4-methylphenyl)amino]-4-oxo-1,4,5,7-tetrahydro-6H-pyrrolo[2,3-c]pyridine-6-carboxylate]
6.44 | CC(=O)Nc1cc(-c2[nH]c3c(c2Nc2ccc(C)cc2)C(=O)CN(C(=O)OC(C)(C)C)C3)ccn1 [Example 295, tert-Butyl 2-(2-acetamidopyridin-4-yl)-3-[(4-methylphenyl)amino]-4-oxo-1,4,5,7-tetrahydro-6H-pyrrolo[2,3-c]pyridine-6-carboxylate]
6.76 | CC(C)(C)OC(=O)N1CC(=O)c2c([nH]c(-c3ccnc(N)c3)c2Nc2ccc(F)cc2)C1 [Example 296, tert-Butyl 2-(2-aminopyridin-4-yl)-3-[(4-fluorophenyl)amino]-4-oxo-1,4,5,7-tetrahydro-6H-pyrrolo[2,3-c]pyridine-6-carboxylate]
7.26 | CC(=O)Nc1cc(-c2[nH]c3c(c2Nc2ccc(F)cc2)C(=O)CN(C(=O)OC(C)(C)C)C3)ccn1 [Example 297, tert-Butyl 2-(2-acetamidopyridin-4-yl)-3-[(4-fluorophenyl)amino]-4-oxo-1,4,5,7-tetrahydro-6H-pyrrolo[2,3-c]pyridine-6-carboxylate]
6.05 | CC(C)(C)OC(=O)N1CC(=O)c2c([nH]c(-c3ccncc3C(F)(F)F)c2Nc2ccccc2)C1 [Example 298, tert-Butyl 4-oxo-3-(phenylamino)-2-[3-(trifluoromethyl)pyridin-4-yl]-1,4,5,7-tetrahydro-6H-pyrrolo[2,3-c]pyridine-6-carboxylate]
5.13 | O=C1CSCc2[nH]c(-c3ccncc3C(F)(F)F)c(Nc3ccccc3)c21 [Example 299, 3-(Phenylamino)-2-[3-(trifluoromethyl)pyridin-4-yl]-1,7-dihydrothiopyrano[3,4-b]pyrrol-4(5H)-one]
5.09 | O=C1COCc2[nH]c(-c3ccncc3C(F)(F)F)c(Nc3ccccc3)c21 [Example 300, 3-(Phenylamino)-2-[3-(trifluoromethyl)pyridin-4-yl]-1,7-dihydropyrano[3,4-b]pyrrol-4(5H)-one]
7.48 | CC(=O)Nc1cc(-c2[nH]c3c(c2Nc2ccccc2)C(=O)CN(C(=O)SC(C)(C)C)C3)ccn1 [Example 301, S-tert-butyl 2-(2-acetamidopyridin-4-yl)-3-anilino-4-oxo-1,4,5,7-tetrahydro-6H-pyrrolo[2,3-c]pyridine-6-carbothioate]
6.53 | CC(=O)Nc1cc(-c2[nH]c3c(c2Nc2ccc(F)cc2)C(=O)CNC3)ccn1 [Example 302, N-(4-{3-[(4-Fluorophenyl)amino]-4-oxo-4,5,6,7-tetrahydro-1H-pyrrolo[2,3-c]pyridin-2-yl}pyridin-2-yl)acetamide]
5.94 | CC(=O)Nc1cc(-c2[nH]c3c(c2Nc2ccc(C)cc2)C(=O)CNC3)ccn1 [Example 303, N-(4-{3-[(4-Methylphenyl)amino]4-oxo-4,5,6,7-tetrahydro-1H-pyrrolo[2,3-c]pyridin-2-yl}pyridin-2-yl)acetamide]
6.63 | CC(C)(C)SC(=O)N1CC(=O)c2c([nH]c(-c3ccncc3OCC(F)F)c2Nc2ccccc2)C1 [Example 304, S-tert-Butyl 3-anilino-2-[3-(2,2-difluoroethoxy)pyridin-4-yl]-4-oxo-1,4,5,7-tetrahydro-6H-pyrrolo[2,3c]pyridine-6-carbothioate]
6.63 | COc1ccc(C(=O)Nc2cc(-c3[nH]c4c(c3Nc3ccccc3)C(=O)CN(C(=O)SC(C)(C)C)C4)ccn2)cc1F [Example 305, S-tert-butyl 3-anilino-2-{2-[(3-fluoro-4-methoxybenzoyl)amino]pyridin-4-yl}-4-oxo-1,4,5,7-tetrahydro-6H-pyrrolo[2,3-c]pyridine-6-carbothioate]
6.77 | COc1cc(C(=O)Nc2cc(-c3[nH]c4c(c3Nc3ccccc3)C(=O)CN(C(=O)SC(C)(C)C)C4)ccn2)ccc1F [Example 306, S-tert-butyl 3-anilino-2-{2-[(4-fluoro-3-methoxybenzoyl)amino]pyridin-4-yl}-4-oxo-1,4,5,7-tetrahydro-6H-pyrrolo[2,3-c]pyridine-6-carbothioate]
6.74 | CC(C)(C)SC(=O)N1CC(=O)c2c([nH]c(-c3ccnc(NC(=O)C4(F)CC4)c3)c2Nc2ccccc2)C1 [Example 307, S-tert-Butyl 3-anilino-2-{2-([(1-fluorocyclopropyl)carbonyl]amino}pyridin-4-yl)-4-oxo-1,4,5,7-tetrahydro-6H-pyrrolo[2,3-c]pyridine-6-carbothioate]
7.51 | CC(C)(C)SC(=O)N1CC(=O)c2c([nH]c(-c3ccnc(NC(=O)[C@@H]4C[C@@H]4F)c3)c2Nc2ccccc2)C1 [Example 308, S-tert-Butyl 3-anilino-2-[2-({[(1S,2S)-2-fluorocyclopropyl]carbonyl}amino)pyridin-4-yl]-4-oxo-1,4,5,7-tetrahydro-6H-pyrrolo[2,3-c]pyridine-6-carbothioate]
7.10 | CC(=O)Nc1cc(-c2[nH]c3c(c2Nc2ccccn2)C(=O)CN(C(=O)OC(C)(C)C)C3)ccn1 [Example 310, tert-Butyl 2-(2-acetamidopyridin-4-yl)-4-oxo-3-(pyridin-2-ylamino)-1,4,5,7-tetrahydro-6H-pyrrolo[2,3-c]pyridine-6-carboxylate]
8.40 | CC(=O)Nc1cc(-c2[nH]c3c(c2Nc2ccc(F)cc2)C(=O)CN(S(C)(=O)=O)C3)ccn1 [Example 311, N-(4-(3-[(4-Fluorophenyl)amino]-6-(methylsulfonyl)-4-oxo-4,5,6,7-tetrahydro-1H-pyrrolo[2,3-c]pyridin-2-yl)pyridin-2-yl)acetamide]
7.80 | CC(=O)Nc1cc(-c2[nH]c3c(c2Nc2ccc(F)cc2)C(=O)CN(C(C)=O)C3)ccn1 [Example 312, N-(4-(6-Acetyl-3-[(4-fluorophenyl)amino]-4-oxo-4,5,6,7-tetrahydro-1H-pyrrolo[2,3-c]pyridin-2-yl)pyridin-2-yl)acetamide]
7.77 | CNC(=O)N1CC(=O)c2c([nH]c(-c3ccnc(NC(C)=O)c3)c2Nc2ccc(F)cc2)C1 [Example 313, 2-[2-(Acetylamino)pyridin-4-yl]-3-[(4-fluorophenyl)amino]-N-methyl-4-oxo-1,4,5,7-tetrahydro-6H-pyrrolo[2,3-c]pyridine-6-carboxamide]
8.10 | COC(=O)N1CC(=O)c2c([nH]c(-c3ccnc(NC(C)=O)c3)c2Nc2ccc(F)cc2)C1 [Example 314, Methyl 2-[2-(acetylamino)pyridin-4-yl]-3-[(4-fluorophenyl)amino]-4-oxo-1,4,5,7-tetrahydro-6H-pyrrolo[2,3-c]pyridine-6-carboxylate]
8.40 | CNS(=O)(=O)N1CC(=O)c2c([nH]c(-c3ccnc(NC(C)=O)c3)c2Nc2ccc(F)cc2)C1 [Example 315, N-(4-(3-[(4-Fluorophenyl)amino]-6-(methylsulfamoyl)-4-oxo-4,5,6,7-tetrahydro-1H-pyrrolo[2,3-c]pyridin-2-yl)pyridin-2-yl)acetamide]
7.60 | CC(=O)Nc1cc(-c2[nH]c3c(c2Nc2ccc(F)cc2)C(=O)CN(C(=O)OC(C)C)C3)ccn1 [Example 316, Propan-2-yl 2-[2-(acetylamino)pyridin-4-yl]-3-[(4-fluorophenyl)amino]-4-oxo-1,4,5,7-tetrahydro-6H-pyrrolo[2,3-c]pyridine-6-carboxylate]
7.30 | CC(=O)Nc1cc(-c2[nH]c3c(c2Nc2ccc(C)cc2)C(=O)CN(C(=O)N(C)C)C3)ccn1 [Example 317, 2-[2-(Acetylamino)pyridin-4-yl]-N,N-dimethyl-3-[(4-methylphenyl)amino]-4-oxo-1,4,5,7-tetrahydro-6H-pyrrolo[2,3-c]pyridine-6-carboxamide]
7.51 | CC(=O)Nc1cc(-c2[nH]c3c(c2Nc2ccc(C)cc2)C(=O)CN(S(=O)(=O)C(C)C)C3)ccn1 [Example 318, N-(4-(3-[(4-Methylphenyl)amino]-4-oxo-(propan-2-ylsulfonyl)-1,5,6,7-tetrahydro-1H-pyrrolo[2,3-c]pyridin-2-yl)pyridin-2-yl)acetamide]
6.72 | CC(=O)Nc1cc(-c2[nH]c3c(c2Nc2ccc(C)cc2)C(=O)CN(C(C)=O)C3)ccn1 [Example 319, N-(4-(6-Acetyl-3-[(4-methylphenyl)amino]-4-oxo-4,5,6,7-tetrahydro-1H-pyrrolo[2,3-c]pyridin-2-yl)pyridin-2-yl)acetamide]
6.75 | CNC(=O)N1CC(=O)c2c([nH]c(-c3ccnc(NC(C)=O)c3)c2Nc2ccc(C)cc2)C1 [Example 320, 2-[2-(Acetylamino)pyridin-4-yl]-N-methyl-3-[(4-methylphenyl)amino]-4-oxo-1,4,5,7-tetrahydro-6H-pyrrolo[2,3-c]pyridine-6-carboxamide]

Source: patent US20200216439A1, “HETERO-1,5,6,7-TETRAHYDRO-4H-INDOL-4-ONES” (BAYER PHARMA AKTIENGESELLSCHAFT, priority 2015, published 2020)
